Reference: ChEMBL document CHEMBL5604062, “ASAP - ZIKV NS2B-NS3 protease fluorescence dose response” (2024)
Values joined by “and” are separate entries in the source; they are usually repeats but may differ in a detail not shown here. Equal entries are not always repeated.

Target: Nonstructural protein 3 (Zika virus, UniProt A0A024AXB9)
Assay: Functional biochemical assay to identify treatments for viral infectious disease that targets Zika NS2B-NS3 protease. Utilizing a direct enzyme activity measurement method, reading the fluorescence intensity is used to characterize the relative potency of inhibitors as IC50.
Design: species or system PRVABC59

Nonstructural protein 3, sequence (A0A024AXB9 whole entry): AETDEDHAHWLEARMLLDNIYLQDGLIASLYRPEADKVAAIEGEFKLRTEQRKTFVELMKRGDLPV

Row | SMILES | IC50
1 | NCc1cccc(NC(=O)[C@@H](NC(=O)OCc2ccccc2)c2ccc(-c3ccc4cn[nH]c4c3)cc2)c1 | 6.07 µM and 5.74 µM
2 | O=C(NCC(F)F)[C@H](Nc1ccc2c(c1)CNC2)c1cccc(Cl)c1 | 0.082 µM and 0.066 µM
3 | O=C1Cc2c(cccc2C(=O)N[C@H]2CC[C@H](OC3CCCC3)CC2)N1 | > 25 µM
4 | O=C(Nc1cc(Cl)cc(-c2cc(NCc3ccccc3)c(C(=O)O)cn2)c1)OCc1ccccc1 | 14 µM
5 | CCNC(=O)c1ccnc(NC(=O)c2cc(C3CC3)n(C)c2C)c1 | > 25 µM
6 | CN(C)Cc1cccc(NC(=O)[C@H](NC(=O)OCc2ccccc2)c2ccc(OCc3ccccc3)cc2)c1 | > 99.5 µM
7 | CCn1ccnc(N2C[C@H](c3c[nH]c4ccccc34)[C@H](OC(C)=O)C2)c1=O | > 99.5 µM
8 | O=C(Nc1ccc2c(c1)CNC2)c1cc(Cl)ccc1-n1cnnn1 | 1.05 µM
9 | O=C(NCC(F)F)[C@H](Nc1ccc2c(c1)CNC2)c1cc(Cl)cc2ccoc12 | 0.028 µM and 0.018 µM
10 | O=C(Nc1ccc(Cl)cc1C(=O)Nc1cccc(C2CCNCC2)c1)OCc1ccccc1 | > 99.5 µM
11 | O=C(O)CCc1ccc(NC(=O)c2cc(Cl)cc(C3CC3)c2)cc1 | > 99.5 µM
12 | CC(C)COc1ccc(Cl)cc1C(=O)Nc1ccc2c(c1)CNC2 | 2.29 µM
13 | Cc1cc(-c2ccc3[nH]c(C(=O)O)cc3c2)c(=O)n(Cc2ccccc2)c1 | > 99.5 µM
14 | O=C(Nc1ccc2c(c1)CNC2)c1ccc2ccncc2c1 | 13.9 µM
15 | CNC(=O)[C@H](Nc1cc(CNC(=O)OC(C)(C)C)cc(C(=O)O)c1)c1cc(Cl)cc(C2CC2)c1 | > 99.5 µM
16 | CN1CCC(c2nc(C(F)(F)F)n3c2CN(c2cccc(C(N)=O)n2)CC3)CC1 | > 99.5 µM
17 | CCn1cc(C(=O)NC)nc(N2CC[C@@H](CO)C2)c1=O | > 99.5 µM
18 | C=CC[C@H](Nc1cc([C@H]2CCOC2)ccn1)c1cc(C2CC2)n(C)n1 | > 25 µM
19 | Nc1ccc(/C=C/C(=O)C(=O)N2CCN(CCc3ccccc3)CC2)cc1 | > 99.5 µM
20 | c1cc(CN2CCC(c3c[nH]c4cccnc34)CC2)c2[nH]ncc2c1 | > 99.5 µM
21 | O=C(O)c1cc(Cl)ccc1NCc1ccc(Oc2ccccc2Cl)cc1 | > 99.5 µM
22 | O=C(N[C@@H](C(=O)N[C@H]1CCCNC1)c1ccc(OCc2ccccc2)cc1)OCc1ccccc1 | > 99.5 µM
23 | NCc1cccc(N2CCN(C(=O)OCc3ccccc3)[C@H](c3ccc(OCc4ccccc4)cc3)C2=O)c1 | 21 µM

Row | SMILES | IC50
24 | C[C@@H](NC(=O)c1cc(Cl)ccc1NS(=O)(=O)c1ccc(Oc2ccccc2Cl)cc1)C(=O)O | > 99.5 µM
25 | O=C(Nc1cc(Cl)cc(C(=O)N2CCC[C@H]2C(=O)O)c1)OCc1ccccc1 | > 99.5 µM
26 | CC(C)(C)OC(=O)N[C@H](C(=O)Nc1ccc(CN)cc1)c1ccc(OCc2ccccc2)cc1 | > 99.5 µM
27 | O=C(Nc1cc(Cl)cc(C(=O)N[C@H](c2nn[nH]n2)C2CCNCC2)c1)OCc1ccccc1 | > 99.5 µM
28 | O=C(Nc1cc(-c2cccnc2)ccn1)c1cc(C2CC2)oc1C1CC1 | > 25 µM
29 | CN(c1ncnc(-c2ccsc2C=O)n1)C1CCNCC1 | 98.4 µM
30 | CCn1c(=O)c(N2CC[C@]3(CCNC3=O)C2)nc2ccccc21 | > 99.5 µM
31 | O=C1Cc2c(cccc2C(=O)NCC2(F)CC3(CCOCC3)C2)N1 | > 25 µM
32 | O=C(Nc1cc(Cl)cc(C(=O)NC[C@@H]2CNCCC2(F)F)c1)OCc1ccccc1 | > 99.5 µM
33 | c1ccc2sc(C3CCN(CCc4c[nH]c5ccccc45)CC3)nc2c1 | > 99.5 µM
34 | NCc1cccc([C@H](C#CCO)Nc2cc(Cl)cc(NC(=O)OCc3ccccc3)c2)c1 | 15.6 µM
35 | CC1(C)C(=O)N[C@H]2CCCN(C(=O)Nc3ccc4c(c3)CNC4)[C@H]21 | > 25 µM
36 | COC(=O)c1cc(Cl)ccc1NS(=O)(=O)c1ccc(Br)cc1 | > 99.5 µM
37 | c1ccc2c(CN3CCN(c4ccncc4)CC3)c[nH]c2c1 | 98 µM
38 | O=C(NC1CCCCC1)c1cc(Cl)ccc1NS(=O)(=O)c1ccc(Oc2ccccc2Cl)cc1 | > 99.5 µM
39 | O=C(N[C@H](C(=O)NCc1ccc(F)cc1)c1ccc(OCc2ccccc2)cc1)OCc1ccccc1 | > 99.5 µM
40 | C[C@H](CC(=O)O)N(C)C(=O)c1cc(Cl)cc(NC(=O)OCc2ccccc2)c1 | > 99.5 µM
41 | Cc1c(C(=O)Nc2n[nH]c3c2CNC3)cc(C2CC2)n1C | > 99.5 µM
42 | O=C(Nc1cc(-c2cccnc2)ccn1)c1cc(C2CC2)[nH]n1 | > 25 µM
43 | C[C@H](C(=O)O)N(C)C(=O)c1cc(Cl)cc(NC(=O)OCc2ccccc2)c1 | > 99.5 µM
44 | CN(C)C(=O)c1cc(CN)cc([C@@H]2C[C@H]2c2cc(Cl)cc(NC(=O)OCc3ccccc3)c2)c1 | 11.9 µM
45 | c1ccc2c(CN3CCC(c4c[nH]c5cccnc45)CC3)n[nH]c2c1 | 42.9 µM
46 | CCCC[C@H](NC(C)=O)C(=O)N[C@H](C(=O)NCc1ccc(CN)cc1)c1ccccc1 | > 99.5 µM

Row | SMILES | IC50
47 | CO[C@]1(C)C(=O)Nc2cc(F)cc(C(=O)Nc3ccc4c(c3)CNC4)c21 | 1.19 µM
48 | CN1[C@@H]2CCC[C@H]1C[C@@H](NC(=O)C1CCN(c3ccc(C=O)cc3)CC1)C2 | > 99.9 µM
49 | NCc1cc(/C=C/C(=O)O)cc(NC(=O)c2cc(Cl)cc(NC(=O)OCc3ccccc3)c2)c1 | 3.17 µM
50 | Cn1cc2cc(Cl)cc(C(=O)Nc3ccc4c(c3)CNC4)c2n1 | 0.214 µM
51 | N[C@H]1CCc2cc(-c3ccn(-c4ccccc4)n3)ccc2C1 | > 99.5 µM
52 | O=C(Cn1ccnc(N2CC[C@H](CO)C2)c1=O)NCc1ccsc1 | > 99.5 µM
53 | NC(=O)c1ccc(N2CC[C@@H](CO)C2)cc1 | > 99.5 µM
54 | NCCCc1ccc(F)c(NC(=O)c2cc(Cl)cc(NC(=O)OCc3ccccc3)c2)c1 | 6.27 µM
55 | CC(C)n1cc(C(=O)Nc2cc(-c3cccnc3)ccn2)cn1 | > 25 µM
56 | O=C(Nc1ccc2c(c1)CNC2)c1cc(F)cc(/C=C/c2ccccc2)c1 | 0.165 µM
57 | CCCN(C)C(=O)Cn1ccnc(N2CC[C@H](CO)C2)c1=O | > 99.5 µM
58 | O=C(N[C@@H](C(=O)NCc1cnccn1)c1ccc(OCc2ccccc2)cc1)OCc1ccccc1 | > 99.5 µM
59 | O=C(Nc1cc(Cl)cc(C(=O)NCC2(CO)CCNCC2)c1)OCc1ccccc1 | > 99.5 µM
60 | O=C(Nc1cc(Cl)cc(C(=O)NC[C@H]2CC3(CNC3)CO2)c1)OCc1ccccc1 | 46.1 µM
61 | CCCCCC(=O)N[C@H](C(=O)N1CCC(CN)CC1)c1ccc(OCc2ccccc2)cc1 | > 99.5 µM
62 | O=C(O)c1ccc(-c2cc(NC(=O)c3cc(F)cc4[nH]ncc34)cc3c2CNC3)cc1 | 0.035 µM and 0.029 µM
63 | C[C@H](N)c1cccc(NC(=O)c2cc(Cl)cc(NC(=O)OCc3ccccc3)c2)c1 | 13.7 µM
64 | Cc1ncc2c(n1)CCC[C@H]2NC(=O)c1cccc2c1CC(=O)N2 | > 25 µM
65 | CC(C)(C)c1ccc2[nH]cc(CN3CCC(c4cscn4)CC3)c2c1 | > 99.5 µM
66 | O=C(Nc1cc(Cl)cc([C@H]2Nc3ccc(-c4nn[nH]n4)cc3[C@H]3OCCC[C@@H]23)c1)OCc1ccccc1 | > 99.5 µM
67 | O=C(Nc1cc(Cl)cc(C(=O)N[C@@]23CCCCC[C@@H]2NCC3)c1)OCc1ccccc1 | 76.1 µM
68 | O=C(Nc1cc(Cl)cc(C(=O)Nc2cccc(-n3nn[nH]c3=O)c2)c1)OCc1ccccc1 | 30.8 µM
69 | O=C1CCc2cc(NC(=O)c3cc(Cl)cc4[nH]ncc34)ccc2N1 | > 99.5 µM

Further lines, results first:

Row | IC50 | SMILES
70 | > 99.5 µM | O=C(O)C[C@H]1CN(c2ccc(-c3cc(Cl)cc(NC(=O)OCc4ccccc4)c3)cn2)CCO1
71 | > 99.5 µM | NCc1cccc(NC(=O)c2cc(NC(=O)OCc3ccccc3)cc(C(F)(F)F)c2F)c1
72 | > 99.5 µM | NCc1cccc(NC(=O)[C@@H](NC(=O)OCc2ccccc2)c2cccc(-c3cncnc3)c2)c1
73 | > 99.5 µM | O=C(Nc1cccc(N2CCNCC2)c1)c1cccc2ncccc12
74 | > 99.5 µM | Cc1cc(C(=O)Nc2cccc(CN)c2)c2c(C)nn(CC(=O)NC(C)C)c2n1
75 | > 99.5 µM | COc1cn(-c2cccc(C(F)(F)F)c2)nc1C(=O)Nc1cccc(CN)c1
76 | 61 µM | Cc1occ(C(F)(F)F)c1C(=O)N[C@H](C(=O)Nc1cccc(CN)c1)c1ccc(OCc2ccccc2)cc1
77 | > 99.5 µM | C[C@H]1CN(C)C[C@@H](C(=O)Nc2cccc(CN)c2)O1
78 | > 99.5 µM | NCc1cccc(NC(=O)[C@@H](NC(=O)OCc2ccccc2)c2c(F)cccc2F)c1
79 | 21.9 µM | Cn1nc2c(c1NC(=O)c1cc(Cl)cc(NC(=O)OCc3ccccc3)c1)CNCC2
80 | > 25 µM | COCCN1C(=O)CCc2cc(NC(=O)c3cc(C4CC4)n(C)c3C)ccc21
81 | > 99.5 µM | NCc1cccc(NC(=O)[C@@H](Cc2c[nH]c3ccccc23)NC(=O)OCc2ccccc2)c1
82 | > 99.5 µM | NCc1cccc(NC(=O)[C@@H](NC(=O)OCc2ccccc2)c2ccc(OC[C@H]3CCCCO3)cc2)c1
83 | > 99.5 µM | CNC(=O)C[C@H](Nc1ccccn1)c1cc(Cl)cc(CN)c1
84 | 39.6 µM | NCc1cccc(NC(=O)c2cc(N)cc(Cl)c2)c1
85 | > 99.5 µM | NCc1cccc(NC(=O)c2cc(C3CC3)n3nc(C(F)(F)F)cc3n2)c1

Row | IC50 | SMILES
86 | > 99.5 µM | NCc1cccc(NC(=O)c2nn(-c3ccccc3F)cc2Br)c1
87 | > 99.5 µM | NCc1cccc(NC(=O)[C@@H](NC(=O)OCc2ccccc2)C2CCN(S(=O)(=O)Cc3cscn3)CC2)c1
88 | > 25 µM | Cn1nc(C(=O)Nc2cc([C@H]3CCOC3)ccn2)cc1C1CC1
89 | > 25 µM | Cc1cc(N2CCC(NC(=O)c3cccc4c3CC(=O)N4)CC2)[nH]n1
90 | > 99.5 µM | NCc1cccc(NC(=O)[C@@H](NS(=O)(=O)c2ccccn2)c2ccc(OCc3ccccc3)cc2)c1
91 | > 99.5 µM | CCn1cc(-c2ccccc2N)nc(N2CC[C@@H](CO)C2)c1=O
92 | > 99.5 µM | CCCN(C)CC(=O)N1CCC([C@@H](NC(=O)OCc2ccccc2)C(=O)Nc2cccc(CN)c2)CC1
93 | > 99.5 µM | NCc1cccc([C@@H]2[C@H](C(=O)O)[C@H]2c2cc(N)cc(Cl)c2)c1
94 | > 99.5 µM | Cc1nc(N2CCOCC2)sc1CC(=O)Nc1cccc(CN)c1
95 | > 25 µM | Cc1c(C(=O)Nc2cc(C(=O)N3CCOCC3)ccn2)cc(C2CC2)n1C
96 | > 99.5 µM | NCc1nc(CNC(=O)c2cc(Cl)cc(NC(=O)OCc3ccccc3)c2)cs1
97 | > 99.5 µM | C[C@@H](O)c1cccc(N2CCC(c3nc(N)ncc3F)CC2)n1
98 | 89.6 µM | NCc1cccc(NC(=O)c2cc(NC(=O)OCc3ccccc3)cc3c2OCCO3)c1
99 | > 99.5 µM | CCc1nc(C)c(C(=O)Nc2cccc(-c3nnn[nH]3)c2)s1
100 | 52.3 µM | CCc1ccc(S(=O)(=O)N[C@@H](C(=O)Nc2cccc(CN)c2)c2ccc(OCc3ccccc3)cc2)cc1
101 | > 99.5 µM | O=C(Nc1ccc2c(c1)CNC2)c1ccnc(CO)c1
